Measured values reported in patent publication US10723733B2, “Hepatitis B antiviral agents” (Enanta Pharmaceuticals, Inc., priority 2017, dated 2020).
pEC50: −log10 of the molar value.

Tested on: HBV
Assay: HepAD38 antiviral assay: reduction of viral product accumulation (virion DNA by qPCR, HBsAg/HBeAg by ELISA)
Type: cell-based
Settings: Hepatitis B virus, 120 h, HepAD38 cells, 50% reduction of viral product accumulation vs no drug controls, five days after compound addition
Description: Methods: HepAD38 cells are maintained as previously reported (Ladner et al, Antimicrob. Agents Chemother. 1997, […], 1715). Briefly, cells are passaged upon attaining confluency in DMEM/F12 media in the presence of 10% FBS, Penn/Strep, 250 μg/mL G418, and 1 μg/ml tetracycline. Novel compounds are screened by first washing cells three times with PBS to remove tetracycline, and plating in 96 well plates at 35,000 cells/well. Compounds dissolved in DMSO are then diluted 1:200 into wells containing cells. Five days after compound addition, material is harvested for analysis. For an extended 8 day analysis, cells are plated and treated as described above, but media and compound are refreshed on d2 and d5 post initial treatment.
On harvest day, virion DNA is obtained by lysing with Sidestep Lysis and Stabilization Buffer and then quantified via quantitative real time PCR. Commercially available ELISA kits are used to quantitate the viral proteins HBsAg (Alpco) or HbeAg (US Biological) by following the manufacturer's recommended protocol after diluting samples to match the linear range of their respective assays. Irrespective of readout, compound concentrations that reduce viral product accumulation in the cell lysates or supernatants by 50% relative to no drug controls (EC50) are reported; EC50 ranges are as follows: A<0.1 μM; B 0.1-1 μM; C>1 μM.

COC(=O)N[C@]1(C(=O)O)CC2=C(c3ccn(C(F)F)n3)[C@H](c3ccc(F)cc3Cl)N=C(c3nccs3)N2C1 [Example 73]
pEC50 (given as numeric bound): < 6.40

COC(=O)CNC(=O)[C@@]1(NC(=O)OC)CC2=C(c3ccn(C(F)F)n3)[C@H](c3ccc(F)cc3Cl)N=C(c3nccs3)N2C1 [Example 74]
pEC50 (given as numeric bound): < 6.40

COC(=O)[C@]1(N)CC2=C(c3ccn(C(F)F)n3)[C@H](c3ccc(F)cc3Cl)N=C(c3nccs3)N2C1 [Example 75]
pEC50 (given as numeric bound): < 6.40

COC(=O)N[C@]1(COC(=O)NCC(=O)O)CC2=C(c3ccn(C(F)F)n3)[C@H](c3ccc(F)cc3Cl)N=C(c3nccs3)N2C1 [Example 77]
pEC50 (given as numeric bound): < 6.40

COC(=O)CCNC(=O)OC[C@@]1(NC(=O)OC)CC2=C(c3ccn(C(F)F)n3)[C@H](c3ccc(F)cc3Cl)N=C(c3nccs3)N2C1 [Example 78]
pEC50 (given as numeric bound): < 6.40

COC(=O)N[C@]1(COC(=O)NCCC(=O)O)CC2=C(c3ccn(C(F)F)n3)[C@H](c3ccc(F)cc3Cl)N=C(c3nccs3)N2C1 [Example 79]
pEC50 (given as numeric bound): < 6.40

COC(=O)N[C@]1(C(=O)NCCC(=O)OC(C)(C)C)CC2=C(c3ccn(C(F)F)n3)[C@H](c3ccc(F)cc3Cl)N=C(c3nccs3)N2C1 [Example 80]
pEC50 (given as numeric bound): < 6.40

COC(=O)N[C@]1(C(=O)NCCC(=O)O)CC2=C(c3ccn(C(F)F)n3)[C@H](c3ccc(F)cc3Cl)N=C(c3nccs3)N2C1 [Example 81]
pEC50 (given as numeric bound): < 6.40

COC(=O)N[C@@]1(C(=O)OC)CC2=C(c3ccn(C(F)F)n3)[C@H](c3ccc(F)cc3Cl)N=C(c3nccs3)N2C1 [Example 82]
pEC50 (given as numeric bound): < 6.40

COC(=O)N[C@]1(COC(C)=O)CC2=C(c3ccn(C(F)F)n3)[C@H](c3ccc(F)cc3Cl)N=C(c3nccs3)N2C1 [Example 83]
pEC50 (given as numeric bound): < 6.40

COC(=O)N[C@@]1(CO)CC2=C(c3ccn(C(F)F)n3)[C@H](c3ccc(F)cc3Cl)N=C(c3nccs3)N2C1 [Example 84]
pEC50 (class symbols): > 7.00

COC[C@@]1(NC(=O)OC)CC2=C(c3ccn(C(F)F)n3)[C@H](c3ccc(F)cc3Cl)N=C(c3nccs3)N2C1 [Example 85]
pEC50 (given as numeric bound): < 6.40

COC(=O)N[C@@]1(C(C)O)CC2=C(c3ccn(C(F)F)n3)[C@H](c3ccc(F)cc3Cl)N=C(c3nccs3)N2C1 (stereo partly drawn) [Example 87]
pEC50 (given as numeric bound): < 6.40

COC(=O)[C@@]1(CC2=C(c3ccn(C(F)F)n3)[C@H](c3ccc(F)cc3Cl)N=C(c3nccs3)N2)COC(=O)N1 [Example 89]
pEC50 (given as numeric bound): < 6.40

O=C1N[C@](CO)(CC2=C(c3ccn(C(F)F)n3)[C@H](c3ccc(F)cc3Cl)N=C(c3nccs3)N2)CO1 [Example 90]
pEC50 (given as numeric bound): < 6.40

O=C[C@@]1(CC2=C(c3ccn(C(F)F)n3)[C@H](c3ccc(F)cc3Cl)N=C(c3nccs3)N2)COC(=O)N1 [Example 91]
pEC50 (class symbols): > 7.00

COC(=O)[C@@](N)(CO)CC1=C(c2ccn(C(F)F)n2)[C@H](c2ccc(F)cc2Cl)N=C(c2nccs2)N1 [Example 92]
pEC50 (given as numeric bound): < 6.40

COC(=O)[C@]1(CC2=C(c3ccn(C(F)F)n3)[C@H](c3ccc(F)cc3Cl)N=C(c3nccs3)N2)COC(=O)N1 [Example 93]
pEC50 (class symbols): > 7.00

O=C[C@]1(CC2=C(c3ccn(C(F)F)n3)[C@H](c3ccc(F)cc3Cl)N=C(c3nccs3)N2)COC(=O)N1 [Example 95]
pEC50 (class symbols): > 7.00

COC(=O)OC[C@]1(CC2=C(c3ccn(C(F)F)n3)[C@H](c3ccc(F)cc3Cl)N=C(c3nccs3)N2)COC(=O)N1 [Example 96]
pEC50 (class symbols): 6.00 to 7.00

CC(=O)OC[C@]1(CC2=C(c3ccn(C(F)F)n3)[C@H](c3ccc(F)cc3Cl)N=C(c3nccs3)N2)COC(=O)N1 [Example 97]
pEC50 (class symbols): 6.00 to 7.00

CNC(=O)OC[C@]1(CC2=C(c3ccn(C(F)F)n3)[C@H](c3ccc(F)cc3Cl)N=C(c3nccs3)N2)COC(=O)N1 [Example 98]
pEC50 (given as numeric bound): < 6.40

COC[C@]1(CC2=C(c3ccn(C(F)F)n3)[C@H](c3ccc(F)cc3Cl)N=C(c3nccs3)N2)COC(=O)N1 [Example 99]
pEC50 (given as numeric bound): < 6.40

C=CCOC[C@]1(CC2=C(c3ccn(C(F)F)n3)[C@H](c3ccc(F)cc3Cl)N=C(c3nccs3)N2)COC(=O)N1 [Example 100]
pEC50 (given as numeric bound): < 6.40

CO/N=C/[C@]1(CC2=C(c3ccn(C(F)F)n3)[C@H](c3ccc(F)cc3Cl)N=C(c3nccs3)N2)COC(=O)N1 [Example 101]
pEC50 (given as numeric bound): < 6.40

O=C1N[C@@](/C=N/Oc2ccccc2)(CC2=C(c3ccn(C(F)F)n3)[C@H](c3ccc(F)cc3Cl)N=C(c3nccs3)N2)CO1 [Example 102]
pEC50 (class symbols): 6.00 to 7.00

O=C1N[C@](CC2=C(c3ccn(C(F)F)n3)[C@H](c3ccc(F)cc3Cl)N=C(c3nccs3)N2)(C(=O)O)CO1 [Example 103]
pEC50 (given as numeric bound): < 6.40

O=C1N[C@@](CC2=C(c3ccn(C(F)F)n3)[C@H](c3ccc(F)cc3Cl)N=C(c3nccs3)N2)(C(=O)O)CO1 [Example 104]
pEC50 (given as numeric bound): < 6.40

COC(=O)/C=C/[C@]1(CC2=C(c3ccn(C(F)F)n3)[C@H](c3ccc(F)cc3Cl)N=C(c3nccs3)N2)COC(=O)N1 [Example 105]
pEC50 (given as numeric bound): < 6.40

COC(=O)CC[C@]1(CC2=C(c3ccn(C(F)F)n3)[C@H](c3ccc(F)cc3Cl)N=C(c3nccs3)N2)COC(=O)N1 [Example 106]
pEC50 (given as numeric bound): < 6.40

O=C(O)CC[C@]1(CC2=C(c3ccn(C(F)F)n3)[C@H](c3ccc(F)cc3Cl)N=C(c3nccs3)N2)COC(=O)N1 [Example 107]
pEC50 (given as numeric bound): < 6.40

CC(=O)[C@]1(CC2=C(c3ccn(C(F)F)n3)[C@H](c3ccc(F)cc3Cl)N=C(c3nccs3)N2)COC(=O)N1 [Example 108]
pEC50 (given as numeric bound): < 6.40

CC(C)(O)[C@]1(CC2=C(c3ccn(C(F)F)n3)[C@H](c3ccc(F)cc3Cl)N=C(c3nccs3)N2)COC(=O)N1 [Example 109]
pEC50 (given as numeric bound): < 6.40

CC(O)[C@]1(CC2=C(c3ccn(C(F)F)n3)[C@H](c3ccc(F)cc3Cl)N=C(c3nccs3)N2)COC(=O)N1 (stereo partly drawn) [Example 110]
pEC50 (given as numeric bound): < 6.40

OCC(O)(CO)CC1=C(c2ccn(C(F)F)n2)[C@H](c2ccc(F)cc2Cl)N=C(c2nccs2)N1 [Example 111]
pEC50 (class symbols): > 7.00

COC(=O)C(O)(CO)CC1=C(c2ccn(C(F)F)n2)[C@H](c2ccc(F)cc2Cl)N=C(c2nccs2)N1 (stereo partly drawn) [Example 112]
pEC50 (given as numeric bound): < 6.40

[N-]=[N+]=NC[C@@]1(O)CC2=C(c3ccn(C(F)F)n3)[C@H](c3ccc(F)cc3Cl)N=C(c3nccs3)N2C1 [Example 113]
pEC50 (class symbols): 6.00 to 7.00

[N-]=[N+]=NC[C@]1(O)CC2=C(c3ccn(C(F)F)n3)[C@H](c3ccc(F)cc3Cl)N=C(c3nccs3)N2C1 [Example 114]
pEC50 (class symbols): 6.00 to 7.00

CS(=O)(=O)NC[C@@]1(O)CC2=C(c3ccn(C(F)F)n3)[C@H](c3ccc(F)cc3Cl)N=C(c3nccs3)N2C1 [Example 115]
pEC50 (given as numeric bound): < 6.40

CC(=O)NC[C@@]1(O)CC2=C(c3ccn(C(F)F)n3)[C@H](c3ccc(F)cc3Cl)N=C(c3nccs3)N2C1 [Example 116]
pEC50 (given as numeric bound): < 6.40

COC(=O)NC[C@@]1(O)CC2=C(c3ccn(C(F)F)n3)[C@H](c3ccc(F)cc3Cl)N=C(c3nccs3)N2C1 [Example 117]
pEC50 (given as numeric bound): < 6.40

CS(=O)(=O)NC[C@]1(O)CC2=C(c3ccn(C(F)F)n3)[C@H](c3ccc(F)cc3Cl)N=C(c3nccs3)N2C1 [Example 118]
pEC50 (given as numeric bound): < 6.40

COC(=O)N[C@]1(C(C)O)CC2=C(c3ccn(C(F)F)n3)[C@H](c3ccc(F)cc3Cl)N=C(c3nccs3)N2C1 (stereo partly drawn) [Example 119]
pEC50 (given as numeric bound): < 6.40

COC(=O)[C@@]1(O)CC2=C(c3ccn(C(F)F)n3)[C@H](c3ccc(F)cc3Cl)N=C(c3nccs3)N2C1 [Example 120]
pEC50 (given as numeric bound): < 6.40

COC(=O)[C@]1(O)CC2=C(c3ccn(C(F)F)n3)[C@H](c3ccc(F)cc3Cl)N=C(c3nccs3)N2C1 [Example 121]
pEC50 (given as numeric bound): < 6.40
